# Reference: US9381173B2, “Isolated stereoisomeric forms of (S)2-N(3-O-(propan 2-Ol)-1-propyl-4-hydroxybenzene)-3-phenylpropylamide” (Novaremed Ltd., priority 2011, dated 2016)
# Columns and labels:
# Lyn B = Lyn B (Homo sapiens, UniProt P07948); test: Lyn B mobility-shift kinase assay (Caliper LabChip 3000); format: biochemical; settings: 5 concentrations, duplicate wells; listed as (S,R) enantiomer
# Procedure: (§1) Each compound and concentration was tested in duplicate wells.
# (§2) Data points are the averages of duplicate wells. Error bars represent the mean±replicate % activity.
# BLK = BLK (Homo sapiens, UniProt P51451); test: BLK mobility-shift kinase assay (Caliper LabChip 3000); format: biochemical; settings: 5 concentrations, duplicate wells; listed as (S,R) enantiomer
# BLK, sequence (P51451 whole entry, species assumed): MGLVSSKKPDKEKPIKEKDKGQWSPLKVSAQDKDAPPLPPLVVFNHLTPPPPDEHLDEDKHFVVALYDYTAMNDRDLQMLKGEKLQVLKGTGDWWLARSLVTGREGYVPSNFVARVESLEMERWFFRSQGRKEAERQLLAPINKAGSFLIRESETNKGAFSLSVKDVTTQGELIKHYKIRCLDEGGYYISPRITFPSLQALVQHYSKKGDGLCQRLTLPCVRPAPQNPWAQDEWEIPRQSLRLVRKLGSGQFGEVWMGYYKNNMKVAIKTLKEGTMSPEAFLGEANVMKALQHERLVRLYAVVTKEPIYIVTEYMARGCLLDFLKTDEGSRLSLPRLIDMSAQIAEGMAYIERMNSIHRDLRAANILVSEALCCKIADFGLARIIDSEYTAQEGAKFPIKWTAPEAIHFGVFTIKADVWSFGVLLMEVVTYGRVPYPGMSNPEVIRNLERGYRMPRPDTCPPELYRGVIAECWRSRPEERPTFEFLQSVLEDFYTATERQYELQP
# Procedure: as §1, §2
# Lyn A = Lyn A (Homo sapiens, UniProt P07948); test: Lyn A mobility-shift kinase assay (Caliper LabChip 3000); format: biochemical; settings: 5 concentrations, duplicate wells; listed as (S,R) enantiomer
# Lyn A, sequence (P07948 whole entry, species assumed): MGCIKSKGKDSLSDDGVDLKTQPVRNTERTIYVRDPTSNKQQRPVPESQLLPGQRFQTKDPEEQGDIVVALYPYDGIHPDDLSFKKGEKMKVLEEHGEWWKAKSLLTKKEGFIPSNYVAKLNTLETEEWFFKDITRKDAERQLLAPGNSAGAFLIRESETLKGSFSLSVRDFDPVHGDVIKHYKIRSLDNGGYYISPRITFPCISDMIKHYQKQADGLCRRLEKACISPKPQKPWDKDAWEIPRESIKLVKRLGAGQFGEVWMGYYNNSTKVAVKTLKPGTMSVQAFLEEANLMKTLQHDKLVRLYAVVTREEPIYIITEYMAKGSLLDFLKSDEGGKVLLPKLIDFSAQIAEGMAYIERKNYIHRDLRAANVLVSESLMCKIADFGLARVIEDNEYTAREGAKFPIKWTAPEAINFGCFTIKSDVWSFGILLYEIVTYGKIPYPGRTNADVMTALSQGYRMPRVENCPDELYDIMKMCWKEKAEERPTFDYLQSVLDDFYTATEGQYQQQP
# Procedure: as §1, §2
# [1] = system: tail flick model for nociceptive pain in mice; test: Tail flick test for nociceptive pain; format: in vivo; settings: for Mean latency time Post-treatment: 30 minutes after administration; for Mean latency time Pre-treatment: baseline a day before
# Procedure: In the present study the analgesic effect of the substantially pure enantiomers E1 and E2 was evaluated using the tail flick model for nociceptive pain in mice.
# The experiment was performed using male ICR strain 7 weeks old mice (25-27 g) (supplied by Harlan Israel, Ltd.)
# Response to pain was assessed using the tail flick method which utilizes an Ugo Basile tail flick instrument. The animal is placed and held gently on the Ugo Basile tail flick (TF) instrument surface with the tail straight back and above a photoelectric cell that served as heat source. The heat source and timer are turned on by a foot pedal press, and automatically switch off when the animal flicks its tail off the emitter. Latency is measured and analyzed as an analgesic effect.
# Description of the Study: The baseline tail flick was measured a day before the experiment started. On the day of the experiment, animal body weights were first measured followed by the IP administration of the test items (vehicle, morphine, NRD 13 S E1 and E2). 30 minutes after administration of the test items, the animals were subjected to the tail-flick testing. The tail-flick experiments were followed by blood sampling of all groups. The experiment was terminated after spinal cords and brains of all groups have been collected.
# Statistics and Data Evaluation: All parameters are represented as means and standard error of the mean (SEM). Data was analyzed using a two tailed, unpaired T-test to compare each treatment group to the Vehicle treated animals. A two-tailed, paired T-test was used to compare the pre-treatment and post-treatment of each treatment group. Probability values p<0.01 and p<0.05 are considered significant.
# [2] = system: spinal nerve ligation (SNL or Chung) model for neuropathic pain in rats; test: Spinal nerve ligation (Chung) model, Von Frey test for mechanical allodynia; format: in vivo
# Procedure: The antinociceptive and analgesic activity of E1 in a spinal nerve ligation (SNL or Chung) model for neuropathic pain in rats was evaluated.
# On study day 0, all animals underwent Chung surgery, which consisted of an operation where the left L5-L6 spinal nerves were isolated and cut. Fourteen days post surgery the animals were selected using pain threshold results from the Von Frey test. Only animals that indicated signs of mechanical allodynia were included in the study. After the selection process, the animals were grouped and Test Items were administered via IP. The pain response was measured using Von Frey methodology at 2, 5 and 24 hours after Test Item administration on study day 14, and at 2, 5, 24 and 48 hours on study day 21 after 7 days of Test Item administration.
# Species: 50 SD young adult male rats, 225-260 g at study initiation (Harlan Laboratories, Israel. Ltd.)
# Neuropathic Pain Induction: While under anesthesia using ketamine/xylazine sodium and after the area was shaved, the rat was placed in a prone position and the left paraspinal muscles were separated from the spinous process at the L4-S2 levels. The L6 vertebral transverse process was carefully removed with a small rongeur to visually identify the L5-L6 spinal nerves. The left L5-L6 spinal nerves were cut. The muscle was then closed with 4-0 silk sutures and the skin was closed by a clamp. Following surgery, the rats were returned to the cage and remained under a heating lamp until they awoke.
# Inclusion/Exclusion Criteria for Pre-Selection: On post-operative day 14, animals were tested for mechanical allodynia using Von Frey methodology prior to being placed in their experimental groups. Only animals with a pain threshold of ≦26 g for the operated leg were included in the study. In order to form homogenous treatment groups and to adhere to randomization, all the operated rats were grouped according to inclusion/exclusion criteria.
# The Von Frey test was performed prior to Test Items' administrations (pre-TI injection) and at 2 and 5 hours after TI administration (post-TI injection) on study days 14 and 21.
# Von Frey test was performed prior to TI's administration on study day 15 (24 hours post-TI's administration on study day 14) and on study days 22 and 23 (24 and 48 hours respectively post-TI's administration on study day 21).
# Pain Response Evaluation: Pain response was evaluated using Von Frey test for mechanical allodynia.
# The Von Frey test for mechanical allodynia is based on applying short pulses of pressure that are not painful to a naive animal. In fact, in order to achieve paw withdrawal from a naive animal, the pressure applied is sometimes higher than 60 g. This often requires the researcher to apply enough pressure with the Von Frey filament to actually lift the paw of the naive animal. However, in disease conditions, the animals are sensitive to much lower pressure and experience pain as a result of a normally non-painful stimulus.
# Mechanical Allodynia Evaluation (Von Frey Testing): Allodynic response to tactile stimulation was assessed using the Von Frey apparatus (Touch®).
# The rats were placed in an enclosure and positioned on a metal mesh surface, but allowed to move freely. The rats' cabins were covered with red cellophane to diminish environmental disturbances. The test began after cessation of exploratory behavior. The set of Von Frey monofilaments provide an approximate logarithmic scale of actual force and a linear scale of perceived intensity as provided by the manufacturer of the Von Frey apparatus (Ugo Basil). The operating principle: When the tip of a fiber of given length and diameter is pressed against the skin at right angles, the force of application increases as long as the researcher continues to advance the probe until the fiber bends. After the fiber bends, the probe continues to advance, causing the fiber to bend more, but without additional force being applied to the paw. […]
# [3] = Body weight in the Chung model study; format: in vivo, rats
# Procedure: Body Weights: Body weight was measured at regular intervals on study days −1 for baseline values and seven days after the surgery (study day 7).
# [4] = 150 mg/kg IP (group 2), before first dose
# [5] = 150 mg/kg IP on days 14, 15, 21 (group 2)
# [6] = 150 mg/kg IP, study day 14, 2 hours
# [7] = 150 mg/kg IP, study day 21, 2 hours
# Lyn B, sequence (P07948 1-491 isoform P07948-2, species assumed): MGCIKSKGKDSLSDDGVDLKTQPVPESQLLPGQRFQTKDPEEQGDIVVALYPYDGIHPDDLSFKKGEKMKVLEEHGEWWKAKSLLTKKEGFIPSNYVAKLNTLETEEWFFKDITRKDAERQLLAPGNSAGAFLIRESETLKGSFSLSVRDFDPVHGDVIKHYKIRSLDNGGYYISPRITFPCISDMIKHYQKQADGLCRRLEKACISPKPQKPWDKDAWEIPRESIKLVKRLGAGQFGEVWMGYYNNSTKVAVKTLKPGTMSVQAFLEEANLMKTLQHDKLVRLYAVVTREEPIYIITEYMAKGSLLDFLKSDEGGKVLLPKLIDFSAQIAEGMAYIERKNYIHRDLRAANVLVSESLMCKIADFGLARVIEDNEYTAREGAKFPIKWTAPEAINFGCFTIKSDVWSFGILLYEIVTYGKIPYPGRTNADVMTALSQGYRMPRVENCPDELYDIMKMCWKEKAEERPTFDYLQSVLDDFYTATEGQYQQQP
smiles,measurement,setting,value
"CC(O)COCC(Cc1ccc(O)cc1)NC(=O)CCc1ccccc1 [E2, (S)2-N(3-O—((R)propan 2-ol)-1-propyl-4-hydroxybenzene)-3-phenylpropylamide]",modulation of LynB tyrosine kinase activity,Lyn B,inhibited
same,modulation of BLK tyrosine kinase activity,BLK,inhibited
same,modulation of LynA tyrosine kinase activity,Lyn A,inhibited
same,difference in tail flick latency times,[1]; 10 mg/kg IP,did not cause any statistically significant difference
same,increase of latency time between pretreatment and post treatment,[1]; 10 mg/kg IP,not statistically significant
same,reducing pain when compared to the Vehicle,[1]; 10 mg/kg IP,not significantly active in reducing pain
same,Δ of latency time post- and pre-treatment,"[1]; 10 mg/kg IP (groups 4, 6)",0.63 ± 0.87 s
same,Mean latency time Post-treatment,"[1]; 10 mg/kg IP (groups 4, 6)",8.93 ± 0.93 s
same,Mean latency time Pre-treatment,"[1]; 10 mg/kg IP (groups 4, 6)",8.30 ± 0.46 s
same,conclusion: activity in tail flick study,[1]; dose of 10 mg/kg,not active
same,pain analgesic in animal models of pain,"[1]; summary statement, listed as (S,R) enantiomer",ineffective or less effective
"NCC1(CC(=O)O)CCCCC1 [Gabapentin, reference compound]","delta force right minus left leg, Day 14 Post-treatment 5 hours",[2]; 150 mg/kg IP (group 2),48.20 ± 1.85 g
same,"mean Von Frey force, left operated leg, Day 14 Post-treatment 5 hours",[2]; 150 mg/kg IP (group 2),11.80 ± 1.85 g
same,"delta force right minus left leg, Day 14 Pretreatment",[2]; [4],50.00 ± 0.88 g
same,"mean Von Frey force, left operated leg, Day 14 Pretreatment",[2]; [4],10.00 ± 0.88 g
same,"difference (delta) force between right healthy leg and left operated leg, Baseline","[2]; 150 mg/kg IP (group 2), before operation",0.00 ± 0.00 g
same,"mean Von Frey force required for withdrawal of the left operated leg, Baseline","[2]; 150 mg/kg IP (group 2), day -1, before operation",53.20 ± 4.53 g
same,"delta force right minus left leg, Day 21 Post-treatment 5 hours",[2]; [5],47.40 ± 1.85 g
same,"delta force right minus left leg, Day 21 Post-treatment 24 hours",[2]; [5],46.60 ± 2.29 g
same,"delta force right minus left leg, Day 21 Post-treatment 48 hours",[2]; [5],50.50 ± 0.69 g
same,"delta force right minus left leg, Day 21 Pretreatment",[2]; [5],49.80 ± 0.85 g
same,"mean Von Frey force, left operated leg, Day 21 Post-treatment 5 hours",[2]; [5],12.60 ± 1.85 g
same,"mean Von Frey force, left operated leg, Day 21 Post-treatment 24 hours",[2]; [5],13.40 ± 2.29 g
same,"mean Von Frey force, left operated leg, Day 21 Post-treatment 48 hours",[2]; [5],9.50 ± 0.69 g
same,"mean Von Frey force, left operated leg, Day 21 Pretreatment",[2]; [5],10.20 ± 0.85 g
same,conclusion: analgesic activity of the positive control,"[2]; 150 mg/kg IP, 2 hours after administration on study days 14 and 21",active
same,conclusion: analgesic activity of the positive control,"[2]; 150 mg/kg IP, 5 hours, 24 hours and 48 hours post dosing",no longer detected
same,inhibition of allodynia compared to the pretreatment value of delta withdrawal force,"[2]; 150 mg/kg IP, day 14, 2 hours",inhibited allodynia
same,inhibition of allodynia compared to the pretreatment value of delta withdrawal force,"[2]; 150 mg/kg IP, day 14, 5 hours",not effective
same,"pain relief activity, delta withdrawal force between the two legs vs. Vehicle","[2]; 150 mg/kg IP, day 14 and day 21, 2 hours",significant pain relief activity
same,inhibition of allodynia compared to the pretreatment value of delta withdrawal force,"[2]; 150 mg/kg IP, day 21, 2 hours",effectively inhibited allodynia
same,inhibition of allodynia (Von Frey) compared to the Vehicle control,[2]; [6],inhibited allodynia
same,inhibition of allodynia (Von Frey) compared to the pretreatment value,[2]; [6],inhibited allodynia
same,inhibition of allodynia (Von Frey) compared to the Vehicle control,"[2]; 150 mg/kg IP, study day 14, 5 hours",not effective
same,inhibition of allodynia (Von Frey) compared to the pretreatment value,"[2]; 150 mg/kg IP, study day 14, 24 hours",not effective
same,inhibition of allodynia (Von Frey) compared to the Vehicle control,[2]; [7],effectively inhibited allodynia
same,inhibition of allodynia (Von Frey) compared to the pretreatment value,[2]; [7],inhibited allodynia
same,inhibition of allodynia (Von Frey) compared to the Vehicle control,"[2]; 150 mg/kg IP, study day 21, 5 hours",not effective
same,duration of analgesic effect post administration,[2]; summary statement,≤ 5 h
same,Mean group body weight Day 14,"[3]; 150 mg/kg IP (group 2), before first administration",283.30 ± 2.53 g
same,Mean group body weight Day 7,"[3]; 150 mg/kg IP (group 2), before treatment",255.20 ± 2.83 g
same,Mean group body weight Baseline,"[3]; 150 mg/kg IP (group 2), study day -1, before surgery and treatment",242.10 ± 2.44 g
same,Mean group body weight Day 21,[3]; [5],307.90 ± 3.42 g
"CN1CC[C@]23c4c5ccc(O)c4O[C@H]2[C@@H](O)C=C[C@H]3[C@H]1C5 [Morphine, reference compound]",Mean latency time Post-treatment,[1]; 5 mg/kg IP (group 2),15.38 ± 1.47 s
same,Mean latency time Pre-treatment,[1]; 5 mg/kg IP (group 2),7.92 ± 0.17 s
same,Mean latency time Pre-treatment,"[1]; 5 mg/kg IP (group 2), listed as morphine",7.92 ± 0.17 s
